Test results published in US20180290979A1, “COMPOSITION HAVING COMPOUND ACCELERATING PHOSPHORYLATION OF AMPK AS EFFECTIVE COMPONENT” (Kyoto University, priority 2015, published 2018).

Assays:
AMPKα = test: Enhancement of phosphorylation of AMPK, Western blotting in NIH/3T3 cells; assay type: cell-based, mouse
Experimental: (§1) Compound 1 was added to mouse fibroblast NIH/3T3 cells under serum-free conditions, the cells were harvested over a period of time to prepare a disrupted cell suspension, and phosphorylated AMPKα, total AMPKα, phosphorylated ACC, and total ACC were detected by Western blotting. ACC denotes acetyl-CoA carboxylase.

[1] = test system: ACC (acetyl-CoA carboxylase); test: Enhancement of phosphorylation of ACC, Western blotting in NIH/3T3 cells; assay type: cell-based, mouse
Experimental: as §1

NIH/3T3 cells [2] = test: Inhibition of cell death caused by serum starvation, WST-8 assay; assay type: cell-based, mouse; conditions: serum-free
Experimental: NIH/3T3 cells were cultured under serum-containing or serum-free conditions, and after a predetermined period of time, a WST-8 assay was performed to confirm the cell number (N=6).
FIG. 2 is a graph comparing the viable cell numbers in the serum-starved condition in the presence and absence of Compound 1.

NIH/3T3 cells [3] = test: Inhibition of cell death after storage at 4° C. and rewarming to 37° C.; assay type: cell-based, mouse; conditions: cells stored at 4° C. for 24 hours and then rewarmed to 37° C.
mouse fibroblast MEF = test: Inhibition of TNF-α induced apoptosis; assay type: cell-based
[4] = test system: Mouse spinal cord macrophages; test: Inhibition of cell death in primary culture, WST-8 assay; assay type: cell-based; conditions: serum-containing or serum-free
Experimental: Mouse spinal cord macrophages were cultured under serum-containing or serum-free conditions, and after a predetermined period of time, a WST-8 assay was performed to confirm the cell number (N=6).

[5] = test system: liver warm ischemia reperfusion injury; test: Rat liver warm ischemia reperfusion injury model; assay type: in vivo; conditions: LEW rats, 0.3 mg/kg before ischemia
Experimental: An experiment was performed with a rat liver warm ischemia reperfusion model, in which LEW rats of eight to nine weeks of age were subjected to laparotomy under general anesthesia by endotracheal intubation, and after 20 minutes of warm ischemia applied by blocking the hepatic portal region, the blocking was released and reperfusion was carried out. With respect to positive subjects, using AICAR (aminoimidazole-4-carboxamide rebonucleoside), which is an AMPK activator, a solvent, Compound 1 (0.3 mg/kg), and AICAR (100 mg/kg) were administered, respectively, before ischemia, and aspartate aminotransferase (AST) and alanine aminotransferase (ALT), which are liver deviation enzymes, in peripheral blood were measured six hours after the reperfusion (N=3).

HeLa cells [6] = test: Induction of cell death in cancer cells, WST-8 assay; assay type: cell-based; conditions: human cervical cancer
Jurkat cells = test: as above; assay type: cell-based; conditions: human T-cell leukemia
SH-SY5Y cells = test: Induction of cell death in cancer cells; assay type: cell-based; conditions: human neuroblast
LC3-II = test: Autophagy marker LC3-II in cancer cells, Western blotting; assay type: cell-based, human; conditions: HeLa cells, in the presence of 4 mM of BafA, cultured for 21 hours
Experimental: Bafilomycin A1 (BafA) is an autophagy inhibitor. BafA was added to HeLa cells for one hour and then Compound 1 was added thereto. After this was cultured for 21 hours, the cells were harvested to prepare a disrupted cell suspension, and the amount of LC3-II was confirmed by Western blotting. LC3-II is an autophagy marker.

HeLa cells [7] = test: Effect of autophagy inhibitor 3-MA on cell death induced by Compound 1, WST-8 assay; assay type: cell-based, human
Experimental: 3-Methyladenine (3-MA) is a class III PI3K inhibitor and is also an autophagy inhibitor. 3-MA was added to HeLa cells for one hour, and three days later, a WST-8 assay was performed to confirm the number of the cells.
Thus, it was confirmed that cell death induced by Compound 1 in cancer cells was autophagic.

[8] = 16 hours after the addition (data not shown)
[9] = NIH/3T3 cells, serum-free, within 10 minutes after the addition

## O=S(=O)(Nc1cc(C(F)(F)F)ccc1N1CC[C@@H]2CCCC[C@H]2C1)c1ccc(F)cc1 [Compound 1, 4-fluoro-N-(2-((4aS,8aR)-octahydroisoquinolin-2(1H)-yl)-5-(trifluoromethyl)phenyl)benzenesulfonamide]
AMPKα; [8]
  phosphorylation of AMPK: maintained
AMPKα; [9]
  phosphorylation of AMPK: enhanced
[1]; [8]
  phosphorylation of ACC: maintained
[1]; [9]
  phosphorylation of ACC: enhanced
NIH/3T3 cells [2]
  cell death caused by serum starvation (viable cell number): significantly inhibited cell death
NIH/3T3 cells [3]
  cell death after cold storage and rewarming: cell death inhibitory effect was observed
Mouse fibroblast MEF
  TNF-α induced apoptosis (proinflammatory cell death): cell death inhibitory effect was observed
[4]
  cell death in primary culture (viable cell number): significantly inhibited cell death
[5]
  hepatic injury: alleviate hepatic injury
[5]; 20 minutes warm ischemia, six hours after the reperfusion
  elevation of liver deviation enzymes (AST, ALT) in peripheral blood: inhibited the elevation of liver deviation enzymes
HeLa cells [6]
  cell death in cancer cells: able to induce cell death
Jurkat cells
  cell death in cancer cells: able to induce cell death
SH-SY5Y cells
  cell death in cancer cells: able to induce cell death
LC3-II
  amount of LC3-II: considerably increased
HeLa cells [7]; HeLa cells, with 3-MA, three days
  type of cell death induced in cancer cells: autophagic

## O=S(=O)(Nc1cc(C(F)(F)F)ccc1N1CC[C@@H]2CCCC[C@H]2C1)c1ccccc1 [Compound 2, N-(2-((4aS,8aR)-octahydroisoquinolin-2(1H)-yl)-5-(trifluoromethyl)phenyl)benzenesulfonamide]
NIH/3T3 cells [2]
  cell death caused by serum starvation (viable cell number): cell death inhibitory effect equivalent to that of Compound 1

## Cc1ccc(S(=O)(=O)Nc2cc(C(F)(F)F)ccc2N2CC[C@@H]3CCCC[C@H]3C2)cc1 [Compound 3, N-(2-((4aS,8aR)-octahydroisoquinolin-2(1H)-yl)-5-(trifluoromethyl)phenyl)-4-toluenesulfonamide]
NIH/3T3 cells [2]
  cell death caused by serum starvation (viable cell number): cell death inhibitory effect equivalent to that of Compound 1

## Cn1cnc(N)c2ncnc1-2 [Compound 3-MA, 3-Methyladenine, reference compound]
HeLa cells [7]; HeLa cells with cell death induced by Compound 1, depending on the amount of 3-MA added
  survival rate of the cells: improved

## O=S(=O)(Nc1cc(C(F)(F)F)ccc1N1CC[C@@H]2CCCC[C@H]2C1)c1ccc(Br)cc1 [Compound 4, 4-bromo-N-(2-((4aS,8aR)-octahydroisoquinolin-2(1H)-yl)-5-(trifluoromethyl)phenyl)benzenesulfonamide]
NIH/3T3 cells [2]
  cell death caused by serum starvation (viable cell number): cell death inhibitory effect equivalent to that of Compound 1

## O=S(=O)(Nc1cc(C(F)(F)F)ccc1N1CC[C@@H]2CCCC[C@H]2C1)c1ccc2ccccc2c1 [Compound 6, N-(2-((4aS,8aR)-octahydroisoquinolin-2(1H)-yl)-5-(trifluoromethyl)phenyl)-2-naphthalenesulfonamide]
NIH/3T3 cells [2]
  cell death caused by serum starvation (viable cell number): cell death inhibitory effect equivalent to that of Compound 1
